Results published in ChEMBL document CHEMBL5150005, “Discovery of 5-{4-[(7-Ethyl-6-oxo-5,6-dihydro-1,5-naphthyridin-3-yl)methyl]piperazin-1-yl}-N-methylpyridine-2-carboxamide (AZD5305): A PARP1-DNA Trapper with High Selectivity for PARP1 over PARP2 and Other PARPs” (J Med Chem, 2021).
pIC50, pKd: −log10 of the molar value. Converted amounts (≈) assume the structure as drawn. The source made the active and inactive calls. The rule behind the calls is not given here.

Legend:
[1] = biological target: Poly [ADP-ribose] polymerase 2 (Homo sapiens, UniProt Q9UGN5); assay: Inhibition of human recombinant N-terminal Avi-6His-TEV tagged PARP2 full length expressed in pFastBac expression system incubated for 4 hrs by fluorescence anisotropy binding assay
[2] = Intrinsic clearance in human hepatocytes measured per million of cells; type: ADME, cell-based, Hepatocyte; settings: read-out: CLH
in vitro [3] = settings: human, liver microsomes
[4] = Aqueous solubility of the compound at pH 7.4; type: physicochemical; settings: buffer
in vitro [5] = settings: human, Caco-2, pH 7.4
DLD-1 = assay: Antiproliferative activity against human DLD-1 deficient in BRCA-2 cells measured after 7 days; type: functional, cell-based
physchem = settings: buffer, pH 7.4
[6] = biological target: Protein mono-ADP-ribosyltransferase PARP12 (Homo sapiens) (UniProt Q9H0J9)
[7] = biological target: Protein mono-ADP-ribosyltransferase PARP14 (Homo sapiens) (UniProt Q460N5)
[8] = biological target: Protein mono-ADP-ribosyltransferase TIPARP (Homo sapiens) (UniProt Q7Z3E1)
[9] = biological target: T1, Protein mono-ADP-ribosyltransferase PARP9 (Homo sapiens, UniProt Q8IXQ6)
[10] = biological target: T2, Protein mono-ADP-ribosyltransferase PARP8 (Homo sapiens) (UniProt Q8N3A8)
T2 sequence (whole entry): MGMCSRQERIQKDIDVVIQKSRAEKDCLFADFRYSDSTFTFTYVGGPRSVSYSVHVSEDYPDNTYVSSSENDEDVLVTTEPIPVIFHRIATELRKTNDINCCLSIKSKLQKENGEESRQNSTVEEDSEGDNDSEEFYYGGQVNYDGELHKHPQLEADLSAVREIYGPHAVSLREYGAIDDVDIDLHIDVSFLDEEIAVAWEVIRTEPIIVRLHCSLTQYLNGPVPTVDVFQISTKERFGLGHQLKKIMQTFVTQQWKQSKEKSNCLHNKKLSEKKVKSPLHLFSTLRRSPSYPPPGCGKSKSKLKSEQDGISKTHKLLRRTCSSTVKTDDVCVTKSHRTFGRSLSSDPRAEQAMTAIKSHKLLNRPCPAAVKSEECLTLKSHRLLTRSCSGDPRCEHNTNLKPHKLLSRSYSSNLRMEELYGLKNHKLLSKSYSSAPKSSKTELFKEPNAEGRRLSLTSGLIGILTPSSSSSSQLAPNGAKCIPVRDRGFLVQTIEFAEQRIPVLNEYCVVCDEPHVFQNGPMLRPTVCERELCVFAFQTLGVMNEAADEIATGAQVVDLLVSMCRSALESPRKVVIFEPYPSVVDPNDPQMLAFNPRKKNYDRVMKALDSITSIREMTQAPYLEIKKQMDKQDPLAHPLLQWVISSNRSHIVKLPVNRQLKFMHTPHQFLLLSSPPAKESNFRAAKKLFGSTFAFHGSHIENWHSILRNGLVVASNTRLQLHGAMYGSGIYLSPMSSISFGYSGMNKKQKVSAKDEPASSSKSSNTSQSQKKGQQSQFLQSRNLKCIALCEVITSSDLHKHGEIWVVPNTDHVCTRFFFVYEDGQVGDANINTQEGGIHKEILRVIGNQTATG

[11] = biological target: Poly [ADP-ribose] polymerase 1 (Homo sapiens, UniProt P09874)
[12] = biological target: Voltage-gated inwardly rectifying potassium channel KCNH2 (Homo sapiens, UniProt Q12809); assay: Inhibition of human ERG; type: toxicity
[13] = biological target: Poly [ADP-ribose] polymerase tankyrase-1 (Homo sapiens, UniProt O95271)
[14] = biological target: Protein mono-ADP-ribosyltransferase PARP11 (Homo sapiens, UniProt Q9NR21)
[15] = biological target: Protein mono-ADP-ribosyltransferase PARP8 (Homo sapiens, UniProt Q8N3A8); assay: Binding affinity to PARP8 (unknown origin) assessed as apparent dissociation constant; settings: read-out: Kd(app)
[16] = biological target: T1, Protein mono-ADP-ribosyltransferase PARP9; assay: Binding affinity to PARP9 (unknown origin) assessed as apparent dissociation constant; settings: read-out: Kd(app)
[17] = biological target: Poly [ADP-ribose] polymerase tankyrase-2 (Homo sapiens) (UniProt Q9H2K2)
[18] = biological target: Poly [ADP-ribose] polymerase tankyrase-1 (Homo sapiens) (UniProt O95271); assay: Binding affinity to PARP5a (unknown origin) assessed as apparent dissociation constant
[19] = biological target: Protein mono-ADP-ribosyltransferase PARP16 (Homo sapiens, UniProt Q8N5Y8); assay: Binding affinity to PARP16 (unknown origin) assessed as apparent dissociation constant; settings: read-out: Kd(app)
[20] = biological target: Protein mono-ADP-ribosyltransferase PARP3 (Homo sapiens) (UniProt Q9Y6F1); assay: Binding affinity to PARP3 (unknown origin) assessed as apparent dissociation constant

Sequence of Poly [ADP-ribose] polymerase 2 (Q9UGN5 whole entry): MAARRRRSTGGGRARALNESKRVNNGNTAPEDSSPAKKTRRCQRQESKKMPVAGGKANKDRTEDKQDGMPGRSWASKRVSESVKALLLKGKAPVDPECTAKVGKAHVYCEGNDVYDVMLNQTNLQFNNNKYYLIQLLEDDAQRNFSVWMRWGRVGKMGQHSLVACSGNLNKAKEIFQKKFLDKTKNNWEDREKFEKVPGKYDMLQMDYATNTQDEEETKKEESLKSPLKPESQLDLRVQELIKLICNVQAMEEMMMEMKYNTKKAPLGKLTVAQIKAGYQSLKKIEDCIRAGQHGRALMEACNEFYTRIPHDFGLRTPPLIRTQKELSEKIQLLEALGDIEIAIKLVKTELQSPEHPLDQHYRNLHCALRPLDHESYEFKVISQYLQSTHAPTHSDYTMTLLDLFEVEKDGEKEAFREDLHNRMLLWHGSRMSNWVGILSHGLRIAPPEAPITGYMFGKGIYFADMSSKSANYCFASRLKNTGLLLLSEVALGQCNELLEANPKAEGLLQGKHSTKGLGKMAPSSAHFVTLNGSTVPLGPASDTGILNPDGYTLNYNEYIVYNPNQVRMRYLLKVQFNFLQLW
Sequence of Voltage-gated inwardly rectifying potassium channel KCNH2 (Q12809 whole entry): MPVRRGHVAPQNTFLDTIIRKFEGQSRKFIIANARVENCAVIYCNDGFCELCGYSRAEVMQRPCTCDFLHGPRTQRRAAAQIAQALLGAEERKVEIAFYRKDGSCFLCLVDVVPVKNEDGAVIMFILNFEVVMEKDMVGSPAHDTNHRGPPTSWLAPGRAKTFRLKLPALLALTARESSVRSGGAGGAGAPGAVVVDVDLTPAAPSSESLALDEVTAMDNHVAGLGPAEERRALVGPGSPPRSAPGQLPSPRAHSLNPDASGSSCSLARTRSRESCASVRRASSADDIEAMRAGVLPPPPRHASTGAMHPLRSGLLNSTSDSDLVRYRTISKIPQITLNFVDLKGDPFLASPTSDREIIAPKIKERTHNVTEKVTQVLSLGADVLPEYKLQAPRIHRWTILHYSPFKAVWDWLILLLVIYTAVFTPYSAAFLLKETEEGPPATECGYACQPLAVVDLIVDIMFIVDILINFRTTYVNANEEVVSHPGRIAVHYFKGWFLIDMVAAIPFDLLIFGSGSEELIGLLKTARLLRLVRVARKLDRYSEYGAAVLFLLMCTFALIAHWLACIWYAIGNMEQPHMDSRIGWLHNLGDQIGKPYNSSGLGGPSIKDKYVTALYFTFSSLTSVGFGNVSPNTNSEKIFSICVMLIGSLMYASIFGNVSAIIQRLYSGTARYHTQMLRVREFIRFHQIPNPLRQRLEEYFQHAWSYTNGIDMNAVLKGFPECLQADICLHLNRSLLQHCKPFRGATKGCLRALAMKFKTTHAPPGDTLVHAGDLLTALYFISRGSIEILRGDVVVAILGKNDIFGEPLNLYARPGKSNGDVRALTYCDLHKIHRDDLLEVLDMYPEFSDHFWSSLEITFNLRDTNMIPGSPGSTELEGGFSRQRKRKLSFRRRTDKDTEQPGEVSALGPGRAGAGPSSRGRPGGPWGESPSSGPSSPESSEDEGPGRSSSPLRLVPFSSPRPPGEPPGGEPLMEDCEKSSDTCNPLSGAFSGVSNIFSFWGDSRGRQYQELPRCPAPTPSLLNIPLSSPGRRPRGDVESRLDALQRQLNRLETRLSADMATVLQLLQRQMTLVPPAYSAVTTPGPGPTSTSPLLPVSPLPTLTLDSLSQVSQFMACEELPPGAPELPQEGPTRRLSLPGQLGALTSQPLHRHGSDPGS
Sequence of Poly [ADP-ribose] polymerase 1 (P09874 whole entry): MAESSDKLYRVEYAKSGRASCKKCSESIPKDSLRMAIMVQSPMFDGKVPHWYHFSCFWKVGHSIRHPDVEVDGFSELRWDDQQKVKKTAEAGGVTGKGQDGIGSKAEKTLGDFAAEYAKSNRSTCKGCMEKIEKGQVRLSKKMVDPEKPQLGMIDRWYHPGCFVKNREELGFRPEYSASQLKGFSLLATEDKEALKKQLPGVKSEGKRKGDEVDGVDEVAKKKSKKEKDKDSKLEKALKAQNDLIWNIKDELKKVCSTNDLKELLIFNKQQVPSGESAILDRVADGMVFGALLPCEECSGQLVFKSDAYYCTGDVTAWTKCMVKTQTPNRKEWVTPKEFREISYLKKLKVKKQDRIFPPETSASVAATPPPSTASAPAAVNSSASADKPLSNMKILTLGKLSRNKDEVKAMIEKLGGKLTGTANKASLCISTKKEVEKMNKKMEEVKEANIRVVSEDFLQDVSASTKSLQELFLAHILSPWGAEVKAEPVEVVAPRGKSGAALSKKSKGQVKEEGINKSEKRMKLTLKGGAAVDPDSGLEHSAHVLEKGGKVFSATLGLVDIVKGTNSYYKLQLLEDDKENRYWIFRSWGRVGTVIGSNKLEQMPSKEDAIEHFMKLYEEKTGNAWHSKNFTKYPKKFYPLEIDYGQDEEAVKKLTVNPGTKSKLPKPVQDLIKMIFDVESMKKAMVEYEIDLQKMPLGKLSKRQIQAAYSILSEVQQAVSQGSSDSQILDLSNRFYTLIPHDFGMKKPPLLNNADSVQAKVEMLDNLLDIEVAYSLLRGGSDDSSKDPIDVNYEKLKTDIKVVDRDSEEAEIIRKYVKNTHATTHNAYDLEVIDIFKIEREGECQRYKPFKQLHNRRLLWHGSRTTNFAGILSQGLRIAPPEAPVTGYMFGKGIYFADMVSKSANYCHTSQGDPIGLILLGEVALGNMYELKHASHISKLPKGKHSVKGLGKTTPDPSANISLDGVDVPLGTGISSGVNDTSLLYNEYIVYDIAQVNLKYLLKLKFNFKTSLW
Sequence of Protein mono-ADP-ribosyltransferase PARP11 (Q9NR21 whole entry): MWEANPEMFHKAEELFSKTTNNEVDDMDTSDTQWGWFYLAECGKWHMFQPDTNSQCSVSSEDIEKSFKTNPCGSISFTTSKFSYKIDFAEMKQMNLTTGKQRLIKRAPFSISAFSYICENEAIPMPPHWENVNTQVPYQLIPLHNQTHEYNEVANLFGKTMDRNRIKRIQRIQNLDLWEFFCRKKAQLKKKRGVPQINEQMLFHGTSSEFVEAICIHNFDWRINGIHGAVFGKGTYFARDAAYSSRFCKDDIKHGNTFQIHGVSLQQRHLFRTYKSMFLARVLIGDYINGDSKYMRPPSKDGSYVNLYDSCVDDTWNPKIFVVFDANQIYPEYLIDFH
Sequence of Protein mono-ADP-ribosyltransferase TIPARP (Homo sapiens) (Q7Z3E1 whole entry): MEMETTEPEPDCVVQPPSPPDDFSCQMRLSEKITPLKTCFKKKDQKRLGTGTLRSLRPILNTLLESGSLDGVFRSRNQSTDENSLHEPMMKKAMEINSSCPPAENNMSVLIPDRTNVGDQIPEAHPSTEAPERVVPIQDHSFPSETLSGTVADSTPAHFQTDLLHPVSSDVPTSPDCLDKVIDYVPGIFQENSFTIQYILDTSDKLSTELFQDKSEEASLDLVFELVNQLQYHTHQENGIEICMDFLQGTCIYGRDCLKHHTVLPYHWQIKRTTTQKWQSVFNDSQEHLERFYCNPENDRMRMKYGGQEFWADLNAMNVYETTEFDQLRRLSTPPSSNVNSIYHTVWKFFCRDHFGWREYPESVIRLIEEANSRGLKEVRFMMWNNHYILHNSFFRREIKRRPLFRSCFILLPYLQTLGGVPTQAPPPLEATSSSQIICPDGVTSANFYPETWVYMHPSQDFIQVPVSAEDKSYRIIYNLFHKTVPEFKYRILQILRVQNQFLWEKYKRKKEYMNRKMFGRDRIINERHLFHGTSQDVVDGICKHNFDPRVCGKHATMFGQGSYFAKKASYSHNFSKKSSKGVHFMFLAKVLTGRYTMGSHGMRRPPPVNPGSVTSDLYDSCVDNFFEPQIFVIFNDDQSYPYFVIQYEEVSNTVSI
Sequence of Poly [ADP-ribose] polymerase tankyrase-1 (Homo sapiens) (O95271 whole entry): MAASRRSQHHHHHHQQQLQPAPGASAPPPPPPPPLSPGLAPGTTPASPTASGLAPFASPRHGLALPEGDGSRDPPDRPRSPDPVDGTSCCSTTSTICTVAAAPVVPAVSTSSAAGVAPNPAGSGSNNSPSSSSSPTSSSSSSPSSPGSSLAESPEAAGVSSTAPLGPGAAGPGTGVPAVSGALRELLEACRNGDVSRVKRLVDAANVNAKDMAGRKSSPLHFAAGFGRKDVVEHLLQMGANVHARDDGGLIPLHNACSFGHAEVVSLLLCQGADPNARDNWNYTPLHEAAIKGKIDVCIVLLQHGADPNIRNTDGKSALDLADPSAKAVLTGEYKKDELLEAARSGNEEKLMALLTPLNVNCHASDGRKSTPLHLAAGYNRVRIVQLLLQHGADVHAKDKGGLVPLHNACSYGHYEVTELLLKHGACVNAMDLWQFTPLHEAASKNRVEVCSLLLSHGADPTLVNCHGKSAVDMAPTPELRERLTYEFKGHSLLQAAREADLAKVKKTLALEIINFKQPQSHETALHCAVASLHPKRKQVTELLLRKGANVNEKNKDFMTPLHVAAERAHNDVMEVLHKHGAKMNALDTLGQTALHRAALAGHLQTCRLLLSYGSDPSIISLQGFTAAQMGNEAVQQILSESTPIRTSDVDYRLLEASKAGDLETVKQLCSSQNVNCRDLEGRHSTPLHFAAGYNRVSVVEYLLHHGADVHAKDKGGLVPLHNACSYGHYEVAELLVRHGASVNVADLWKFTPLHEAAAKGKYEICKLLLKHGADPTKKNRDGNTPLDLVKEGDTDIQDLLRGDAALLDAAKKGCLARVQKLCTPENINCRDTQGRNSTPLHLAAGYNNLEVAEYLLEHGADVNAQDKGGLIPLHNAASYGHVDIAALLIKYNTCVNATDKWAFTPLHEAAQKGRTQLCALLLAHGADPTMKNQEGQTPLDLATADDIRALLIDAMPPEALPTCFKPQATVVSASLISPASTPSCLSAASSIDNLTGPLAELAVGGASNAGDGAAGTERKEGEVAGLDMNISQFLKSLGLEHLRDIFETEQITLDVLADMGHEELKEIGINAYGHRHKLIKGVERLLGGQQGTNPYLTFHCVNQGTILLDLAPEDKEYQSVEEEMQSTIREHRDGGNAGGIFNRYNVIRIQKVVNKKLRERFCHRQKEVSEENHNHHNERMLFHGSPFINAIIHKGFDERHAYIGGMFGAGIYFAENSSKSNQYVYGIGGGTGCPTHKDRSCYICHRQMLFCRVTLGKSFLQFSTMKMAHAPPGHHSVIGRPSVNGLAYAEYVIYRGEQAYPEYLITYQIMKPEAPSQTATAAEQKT

SMILES	pIC50 [1]	microsomal CLint (in vitro [3])	solubility [4]	efflux ratio (in vitro [5])	pIC50 (DLD-1; Homo sapiens, DLD-1, 168 h)	logD (physchem)	pIC50 [11]	pIC50 [12]	other results
CCc1nc2ccc(CN3CCN(c4ccc(C(=O)NC)nc4)CC3)cc2[nH]c1=O	5.31	7 µL/min/mg	12 µM (≈ 4.88 µg/mL)	1	8.40	2.4	–	–	hepatocyte CLint [2]: 1.9 µL/min/1e6 cells
C[C@]1(c2nc3c(C(N)=O)cccc3[nH]2)CCCN1 [VELIPARIB]	–	–	–	–	–	–	–	–	Kd(app) [6]: Active; Kd(app) [7]: Active; Kd(app) [8]: Active; Kd(app) [9]: Active; pIC50 (DLD-1; dld-1): 6.12; Kd(app) [10]: Active
Cc1cnc(N2CCN(Cc3ccc4c5c(c(=O)[nH]c4c3)CCCN5)CC2)n1C	5.96	15 µL/min/mg	136 µM (≈ 53.4 µg/mL)	3.6	7.28	2.2	7.29	4.52	–
Cc1cnc(N2CCN(Cc3ccc4c5c(c(=O)[nH]c4c3)CCCC5)CC2)n1C	6.31	57 µL/min/mg	46 µM (≈ 18 µg/mL)	–	–	3.2	–	5.42	–
CCc1cc2ccc(CN3CCN(c4ccc(C(=O)NC)nc4)CC3)cc2[nH]c1=O	5.96	17 µL/min/mg	9 µM (≈ 3.65 µg/mL)	0.7	8.52	2.8	8.30	4.68	–
Cc1cnc(N2CCN(CCCc3nc4c(Cl)cccc4c(=O)[nH]3)CC2)n1C	5.40	44 µL/min/mg	4 µM (≈ 1.6 µg/mL)	–	6.74	2.3	–	5.82	–
O=c1[nH]c(CCCN2CCN(c3ccc(F)cc3F)CC2)nc2c(Cl)cccc12	4.66	58 µL/min/mg	6 µM (≈ 2.51 µg/mL)	–	–	3.9	–	5.85	–
Cc1cnc(N2CCN(Cc3ccc4c5c(c(=O)[nH]c4c3)COCC5)CC2)n1C	5.18	8 µL/min/mg	158 µM (≈ 62.2 µg/mL)	10	–	1.9	7.42	< 4.40	–
NC(=O)c1cc(F)cc2c1C(=O)N(C1CCN(C3CCC(F)(F)CC3)CC1)C2	–	–	–	–	5.70	–	–	–	pIC50 [13]: < 4.00
O=c1[nH]c(CCCN2CC=C(c3ccc(F)cc3)CC2)nc2c(Cl)cccc12	4.70	35 µL/min/mg	56 µM (≈ 22.3 µg/mL)	–	< 4.64	3.8	7.19	5.59	–
CCc1cc2ccc(CN3CCN(c4cnc(C(=O)NC)nc4)CC3)cc2[nH]c1=O	5.62	< 3 µL/min/mg	58 µM (≈ 23.6 µg/mL)	14	5.60	1.8	8.10	< 4.40	–
CCc1cc2ccc(CN3CCN(c4ccc(C(=O)NC)cc4)CC3)cc2[nH]c1=O	5.41	11 µL/min/mg	< 0.25 µM	–	8.15	3	–	5.08	–
CNCc1ccc(-c2[nH]c3cc(F)cc4c3c2CCNC4=O)cc1 [RUCAPARIB]	–	–	–	–	7.57	–	–	–	pKd [14]: < 5.00; pKd [15]: < 5.00; pKd [16]: 5.51; Kd(app) [17]: Active
CCc1cc2ccc(CN3CCN(c4ccc(C(=O)NC)nn4)CC3)cc2[nH]c1=O	5.13	14 µL/min/mg	30 µM (≈ 12.2 µg/mL)	1.5	6.53	2.4	8.40	< 4.40	–
CCc1cc2ccc(CN3CCN(c4ccc(F)cc4F)CC3)cc2[nH]c1=O	< 4.59	16 µL/min/mg	0.2 µM (≈ 0.0767 µg/mL)	–	9.00	4.2	8.10	5.64	–
CCc1cc2ccc(CN3CCN(c4ncc(C)n4C)CC3)cc2[nH]c1=O	5.38	25 µL/min/mg	224 µM (≈ 81.9 µg/mL)	–	8.52	2.7	–	4.92	–
Cc1cnc(N2CCN(Cc3ccc4c(c3)[nH]c(=O)c3ccccc34)CC2)n1C	6.22	26 µL/min/mg	< 12 µM	–	–	3.3	–	5.41	–
Cc1cnc(N2CCN(Cc3ccc4c(c3)[nH]c(=O)c3ncccc34)CC2)n1C	4.55	9 µL/min/mg	383 µM (≈ 149 µg/mL)	–	6.92	1.7	–	< 4.40	–
CCc1cc2cnc(CN3CCN(c4ccc(C(=O)NC)nc4)CC3)cc2[nH]c1=O	–	6 µL/min/mg	31 µM (≈ 12.6 µg/mL)	–	8.70	2	–	–	hepatocyte CLint [2]: < 1 µL/min/1e6 cells
Cc1cnc(N2CCN(Cc3ccc4c(c3)[nH]c(=O)c3cccnc34)CC2)n1C	5.04	30 µL/min/mg	15 µM (≈ 5.83 µg/mL)	1.3	7.82	2.5	7.52	4.96	–
NC(=O)c1cccc2cn(-c3ccc([C@@H]4CCCNC4)cc3)nc12 [NIRAPARIB]	–	–	–	–	6.83	–	–	–	Kd(app) [18]: Active; pKd [14]: < 5.00; pKd [19]: < 5.00; Kd(app) [20]: Active; Kd(app) [9]: Active; Kd(app) [10]: Active
CCc1cc2ccc(CN3CCN(c4cnc(C(=O)NC)cn4)CC3)cc2[nH]c1=O	5.23	18 µL/min/mg	2 µM (≈ 0.813 µg/mL)	–	5.36	2.7	–	< 4.40	–
